Paper PMC10182041, “A first-in-class inhibitor of Hsp110 molecular chaperones of pathogenic fungi” (Nature Communications, 2023)

Assays:
Msi3 [1] = target: Msi3 (Candida albicans, UniProt Q96VB9); experiment: IC50 from the luciferase holdase assay; assay type: biochemical
Msi3 [2] = target: Msi3 (Candida albicans, UniProt Q96VB9, I164D); experiment: luciferase aggregation (holdase) assay at OD320 with purified mutant; assay type: biochemical
Sse1 = target: T1, Sse1 (Saccharomyces cerevisiae, UniProt P32589); experiment: reduction of ATP-FAM binding to purified Sse1, fluorescence polarization; assay type: biochemical
T1 sequence (P32589 1-693): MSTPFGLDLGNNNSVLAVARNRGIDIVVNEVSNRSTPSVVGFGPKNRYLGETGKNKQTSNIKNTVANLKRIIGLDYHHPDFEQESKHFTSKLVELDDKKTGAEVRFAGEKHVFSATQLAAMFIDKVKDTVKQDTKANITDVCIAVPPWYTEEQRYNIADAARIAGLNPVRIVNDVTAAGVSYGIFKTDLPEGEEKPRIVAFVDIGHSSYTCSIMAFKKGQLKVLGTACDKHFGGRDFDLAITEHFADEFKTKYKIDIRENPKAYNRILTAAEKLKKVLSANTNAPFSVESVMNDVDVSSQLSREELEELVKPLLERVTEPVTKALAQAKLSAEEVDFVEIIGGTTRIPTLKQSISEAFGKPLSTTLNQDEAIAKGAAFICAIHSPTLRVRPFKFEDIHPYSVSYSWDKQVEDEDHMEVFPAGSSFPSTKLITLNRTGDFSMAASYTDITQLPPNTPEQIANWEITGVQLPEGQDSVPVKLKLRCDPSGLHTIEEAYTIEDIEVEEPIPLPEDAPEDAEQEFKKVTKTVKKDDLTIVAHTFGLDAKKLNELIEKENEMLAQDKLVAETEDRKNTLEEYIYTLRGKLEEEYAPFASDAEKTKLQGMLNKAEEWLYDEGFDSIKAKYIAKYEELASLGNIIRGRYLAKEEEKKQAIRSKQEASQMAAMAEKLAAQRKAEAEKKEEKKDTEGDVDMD

Ssa1 = Ssa1 (Saccharomyces cerevisiae, UniProt P10591); experiment: displacement of pre-bound ATP-FAM, fluorescence polarization; assay type: binding
Sequence of Ssa1 (P10591 2-642): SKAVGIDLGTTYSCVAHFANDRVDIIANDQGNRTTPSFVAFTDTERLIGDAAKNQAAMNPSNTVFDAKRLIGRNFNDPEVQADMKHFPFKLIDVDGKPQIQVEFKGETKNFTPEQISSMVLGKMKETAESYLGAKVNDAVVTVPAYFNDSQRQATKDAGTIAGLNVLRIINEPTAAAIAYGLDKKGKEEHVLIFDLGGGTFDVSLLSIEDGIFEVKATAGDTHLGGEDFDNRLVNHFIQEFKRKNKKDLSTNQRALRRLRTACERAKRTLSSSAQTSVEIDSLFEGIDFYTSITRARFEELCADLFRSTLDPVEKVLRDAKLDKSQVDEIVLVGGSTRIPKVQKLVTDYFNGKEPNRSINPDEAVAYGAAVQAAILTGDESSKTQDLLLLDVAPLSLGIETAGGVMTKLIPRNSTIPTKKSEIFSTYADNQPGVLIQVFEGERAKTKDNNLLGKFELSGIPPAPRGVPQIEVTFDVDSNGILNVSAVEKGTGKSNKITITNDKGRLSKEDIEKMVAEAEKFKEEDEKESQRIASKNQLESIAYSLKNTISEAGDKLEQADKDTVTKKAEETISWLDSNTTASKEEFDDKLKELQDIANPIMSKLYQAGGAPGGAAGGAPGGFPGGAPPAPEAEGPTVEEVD

Sequence of Msi3 (Candida albicans, UniProt Q96VB9) (Q96VB9 whole entry): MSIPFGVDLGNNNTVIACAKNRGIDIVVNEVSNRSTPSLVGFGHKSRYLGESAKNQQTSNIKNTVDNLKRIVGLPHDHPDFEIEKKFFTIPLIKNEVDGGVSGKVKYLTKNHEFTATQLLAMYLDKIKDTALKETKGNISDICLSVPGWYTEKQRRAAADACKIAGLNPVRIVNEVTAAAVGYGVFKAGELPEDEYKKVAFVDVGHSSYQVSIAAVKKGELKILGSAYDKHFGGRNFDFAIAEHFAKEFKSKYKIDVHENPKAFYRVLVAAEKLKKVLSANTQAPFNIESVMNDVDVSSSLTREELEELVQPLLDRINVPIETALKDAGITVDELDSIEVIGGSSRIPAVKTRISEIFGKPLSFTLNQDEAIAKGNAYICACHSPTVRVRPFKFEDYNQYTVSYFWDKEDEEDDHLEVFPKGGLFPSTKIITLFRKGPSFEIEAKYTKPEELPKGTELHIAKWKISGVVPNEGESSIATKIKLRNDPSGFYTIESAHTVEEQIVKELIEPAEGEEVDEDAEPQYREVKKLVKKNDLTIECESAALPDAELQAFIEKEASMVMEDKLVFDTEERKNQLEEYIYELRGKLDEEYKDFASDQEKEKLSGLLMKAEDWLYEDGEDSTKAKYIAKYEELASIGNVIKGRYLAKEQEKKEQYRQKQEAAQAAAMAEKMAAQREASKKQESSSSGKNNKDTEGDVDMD
Sequence of Msi3 (Candida albicans, UniProt Q96VB9, I164D) (Q96VB9 whole entry I164D): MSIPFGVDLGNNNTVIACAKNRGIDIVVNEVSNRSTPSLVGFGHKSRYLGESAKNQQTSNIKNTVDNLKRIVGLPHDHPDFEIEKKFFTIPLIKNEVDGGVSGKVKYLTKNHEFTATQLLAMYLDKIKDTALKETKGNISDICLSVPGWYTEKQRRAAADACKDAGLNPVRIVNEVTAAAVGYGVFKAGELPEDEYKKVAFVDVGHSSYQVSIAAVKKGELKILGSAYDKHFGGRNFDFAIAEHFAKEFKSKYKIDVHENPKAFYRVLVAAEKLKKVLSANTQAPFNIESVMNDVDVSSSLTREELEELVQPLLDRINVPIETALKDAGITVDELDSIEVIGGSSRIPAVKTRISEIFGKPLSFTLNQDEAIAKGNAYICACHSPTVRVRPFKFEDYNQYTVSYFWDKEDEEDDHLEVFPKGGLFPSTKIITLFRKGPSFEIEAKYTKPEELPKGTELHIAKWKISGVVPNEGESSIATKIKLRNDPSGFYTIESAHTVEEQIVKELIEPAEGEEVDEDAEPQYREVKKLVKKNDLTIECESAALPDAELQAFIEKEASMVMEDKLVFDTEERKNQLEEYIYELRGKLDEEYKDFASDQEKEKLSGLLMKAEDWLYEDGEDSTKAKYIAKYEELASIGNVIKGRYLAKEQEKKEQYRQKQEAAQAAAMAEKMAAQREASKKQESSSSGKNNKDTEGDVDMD

Row | Structure (SMILES) | IC50 (Msi3 [1]) [µM] | luciferase aggregation (holdase) assay at OD320 with purified mutant (Msi3 [2]) | reduction of ATP-FAM binding to purified Sse1, fluorescence polarization (Sse1) | displacement of pre-bound ATP-FAM, fluorescence polarization (Ssa1)
1 | Cc1cccc(COc2nc3c(cc2-c2nc(N)cc(N)n2)c(C)nn3-c2ccccc2)c1 [2H, HLQ2H] | 5.02 ± 0.35 | A similar inhibition of holdase activity was observed for this mutant when treated with 2H (Fig. S6a) | 2H showed a similar inhibition on Sse1 (Fig. S1a), the major Hsp110 from S. cerevisiae | 
2 | Nc1ncnc2c1ncn2[C@@H]1O[C@H](COP(=O)(O)OP(=O)(O)OP(=O)(O)O)[C@@H](O)[C@H]1O [ATP] |  |  |  | suggesting that the pre-bound ATP-FAM was slowly replaced by the regular ATP
